Data from ChEMBL document CHEMBL3044899, “Effect of chloro and fluoro groups on the antimicrobial activity of 2,5-disubstituted 4-thiazolidinones: a comparative study” (2012).
Active and inactive are the calls of the source. No cut-off for these calls is given here.

Legend:
[1] = tested on: Escherichia coli; test: Antibacterial activity against Escherichia coli MTCC 739 at 200 ug/ml by cup-plate method; format: functional; details: read-out: DIZ
[2] = tested on: Pseudomonas aeruginosa; test: Antibacterial activity against Pseudomonas aeruginosa MTCC 2453 at 200 ug/ml by cup-plate method; format: functional; details: read-out: DIZ
[3] = tested on: Pseudomonas aeruginosa; test: Antibacterial activity against Pseudomonas aeruginosa MTCC 2453 at 100 ug/ml by cup-plate method; format: functional; details: read-out: DIZ
[4] = tested on: Escherichia coli; test: Antibacterial activity against Escherichia coli MTCC 739 at 100 ug/ml by cup-plate method; format: functional; details: read-out: DIZ
[5] = tested on: Bacillus subtilis; test: Antibacterial activity against Bacillus subtilis MTCC 121 at 300 ug/ml by cup plate method; format: functional; details: read-out: DIZ
[6] = tested on: Staphylococcus aureus; test: Antibacterial activity against Staphylococcus aureus MTCC 96 at 300 ug/ml by cup-plate method; format: functional; details: read-out: DIZ
[7] = tested on: Staphylococcus aureus; test: Antibacterial activity against Staphylococcus aureus MTCC 96 at 50 ug/ml by cup-plate method; format: functional; details: read-out: DIZ
[8] = tested on: Bacillus subtilis; test: Antibacterial activity against Bacillus subtilis MTCC 121 at 100 ug/ml by cup plate method; format: functional; details: read-out: DIZ
[9] = tested on: Bacillus subtilis; test: Antibacterial activity against Bacillus subtilis MTCC 121 by cup plate method; format: functional, organism-based
[10] = tested on: Candida albicans; test: Antifungal activity against Candida albicans MTCC 227 at 50 to 300 ug/ml by cup-plate method; format: functional, organism-based
[11] = tested on: Pseudomonas aeruginosa; test: Antibacterial activity against Pseudomonas aeruginosa MTCC 2453 by cup-plate method; format: functional, organism-based
[12] = tested on: Staphylococcus aureus; test: Antibacterial activity against Staphylococcus aureus MTCC 96 at 100 ug/ml by cup-plate method; format: functional; details: read-out: DIZ
[13] = tested on: Bacillus subtilis; test: Antibacterial activity against Bacillus subtilis MTCC 121 at 200 ug/ml by cup plate method; format: functional; details: read-out: DIZ
[14] = tested on: Staphylococcus aureus; test: Antibacterial activity against Staphylococcus aureus MTCC 96 by cup-plate method; format: functional, organism-based
[15] = tested on: Escherichia coli; test: Antibacterial activity against Escherichia coli MTCC 739 by cup-plate method; format: functional, organism-based
[16] = tested on: Pseudomonas aeruginosa; test: Antibacterial activity against Pseudomonas aeruginosa MTCC 2453 at 300 ug/ml by cup-plate method; format: functional; details: read-out: DIZ
[17] = tested on: Pseudomonas aeruginosa; test: Antibacterial activity against Pseudomonas aeruginosa MTCC 2453 at 50 ug/ml by cup-plate method; format: functional; details: read-out: DIZ
[18] = tested on: Escherichia coli; test: Antibacterial activity against Escherichia coli MTCC 739 at 50 ug/ml by cup-plate method; format: functional; details: read-out: DIZ
[19] = tested on: Escherichia coli; test: Antibacterial activity against Escherichia coli MTCC 739 at 300 ug/ml by cup-plate method; format: functional; details: read-out: DIZ
[20] = tested on: Bacillus subtilis; test: Antibacterial activity against Bacillus subtilis MTCC 121 at 50 ug/ml by cup plate method; format: functional; details: read-out: DIZ
[21] = tested on: Staphylococcus aureus; test: Antibacterial activity against Staphylococcus aureus MTCC 96 at 200 ug/ml by cup-plate method; format: functional; details: read-out: DIZ

SMILES | zone of inhibition at 200 µg/mL [1] | zone of inhibition at 200 µg/mL [2] | zone of inhibition at 100 µg/mL [3] | zone of inhibition at 100 µg/mL [4] | zone of inhibition at 300 µg/mL [5] | zone of inhibition at 300 µg/mL [6] | zone of inhibition at 50 µg/mL [7] | zone of inhibition at 100 µg/mL [8] | Activity [9] | Activity [10] | Activity [11] | zone of inhibition at 100 µg/mL [12] | zone of inhibition at 200 µg/mL [13] | Activity [14] | Activity [15] | zone of inhibition at 300 µg/mL [16] | zone of inhibition at 50 µg/mL [17] | zone of inhibition at 50 µg/mL [18] | zone of inhibition at 300 µg/mL [19] | zone of inhibition at 50 µg/mL [20] | also measured
O=C1N/C(=N\c2ccc(Cl)cc2)S/C1=C\c1ccc(Cl)cc1 | 7 mm | 8 mm | 7 mm | 8 mm | 10 mm | 10 mm | 6 mm | 8 mm | Dose-dependent effect | inactive | Dose-dependent effect | 8 mm | 8 mm | Dose-dependent effect | Dose-dependent effect | 10 mm | 6 mm | 8 mm | 9 mm | 7 mm | zone of inhibition at 200 µg/mL [21]: 9 mm
O=C1N/C(=N\c2cccc(Cl)c2)S/C1=C\c1ccccc1[N+](=O)[O-] | 9 mm | 9 mm | 8 mm | 8 mm | 10 mm | 10 mm | 8 mm | 9 mm | Dose-dependent effect | inactive | Dose-dependent effect | 9 mm | 9 mm | Dose-dependent effect | Dose-dependent effect | 9 mm | 7 mm | 6 mm | 9 mm | 9 mm | zone of inhibition at 200 µg/mL [21]: 10 mm
O=C1N/C(=N\c2ccc(Cl)cc2)S/C1=C\c1ccc(O)cc1 | 8 mm | 8 mm | 8 mm | 7 mm | 8 mm | 8 mm | 6 mm | 7 mm | Dose-dependent effect | inactive | Dose-dependent effect | 7 mm | 7 mm | Dose-dependent effect | Dose-dependent effect | 9 mm | 7 mm | 7 mm | 8 mm | 6 mm | zone of inhibition at 200 µg/mL [21]: 7 mm
O=C1N/C(=N\c2ccc(F)c(Cl)c2)S/C1=C\c1ccccc1Cl | 9 mm | 12 mm | 10 mm | 8 mm | 14 mm | 14 mm | 10 mm | 12 mm | Dose-dependent effect | inactive | Dose-dependent effect | 11 mm | 14 mm | Dose-dependent effect | Dose-dependent effect | 12 mm | 10 mm | 8 mm | 10 mm | 10 mm | zone of inhibition at 200 µg/mL [21]: 12 mm
O=C1N/C(=N\c2ccc(Cl)cc2)S/C1=C\c1ccccc1[N+](=O)[O-] | 9 mm | 8 mm | 8 mm | 8 mm | 11 mm | 10 mm | 8 mm | 9 mm | Dose-dependent effect | inactive | Dose-dependent effect | 9 mm | 10 mm | Dose-dependent effect | Dose-dependent effect | 9 mm | 7 mm | 6 mm | 9 mm | 8 mm | zone of inhibition at 200 µg/mL [21]: 10 mm
O=C1N/C(=N\c2ccc(F)c(Cl)c2)S/C1=C\c1cccc([N+](=O)[O-])c1 | 9 mm | 11 mm | 10 mm | 8 mm | 15 mm | 16 mm | 11 mm | 12 mm | Dose-dependent effect | inactive | Dose-dependent effect | 12 mm | 14 mm | Dose-dependent effect | Dose-dependent effect | 12 mm | 8 mm | 7 mm | 10 mm | 12 mm | zone of inhibition at 200 µg/mL [21]: 14 mm
O=C1N/C(=N\c2cccc(Cl)c2)S/C1=C\c1ccccc1Cl | 8 mm | 7 mm | 7 mm | 7 mm | 9 mm | 9 mm | 7 mm | 8 mm | Dose-dependent effect | inactive | Dose-dependent effect | 8 mm | 8 mm | Dose-dependent effect | Dose-dependent effect | 8 mm | 6 mm | 7 mm | 8 mm | 7 mm | zone of inhibition at 200 µg/mL [21]: 8 mm
O=C1N/C(=N\c2ccc(F)c(Cl)c2)S/C1=C\c1ccccc1[N+](=O)[O-] | 11 mm | 10 mm | 9 mm | 9 mm | 13 mm | 14 mm | 10 mm | 12 mm | Dose-dependent effect | inactive | Dose-dependent effect | 12 mm | 13 mm | Dose-dependent effect | Dose-dependent effect | 11 mm | 8 mm | 8 mm | 12 mm | 10 mm | zone of inhibition at 200 µg/mL [21]: 13 mm
O=C1N/C(=N\c2ccc(F)c(Cl)c2)S/C1=C\c1ccc(Cl)cc1 | 12 mm | 11 mm | 9 mm | 12 mm | 13 mm | 14 mm | 10 mm | 10 mm | Dose-dependent effect | inactive | Dose-dependent effect | 12 mm | 11 mm | Dose-dependent effect | Dose-dependent effect | 12 mm | 8 mm | 9 mm | 12 mm | 8 mm | zone of inhibition at 200 µg/mL [21]: 12 mm
O=C1N/C(=N\c2cccc(Cl)c2)S/C1=C\c1cccc([N+](=O)[O-])c1 | 8 mm | 9 mm | 8 mm | 7 mm | 10 mm | 10 mm | 8 mm | 9 mm | Dose-dependent effect | inactive | Dose-dependent effect | 9 mm | 9 mm | Dose-dependent effect | Dose-dependent effect | 9 mm | 8 mm | 7 mm | 8 mm | 8 mm | zone of inhibition at 200 µg/mL [21]: 9 mm
O=C(O)c1cn(C2CC2)c2cc(N3CCNCC3)c(F)cc2c1=O [CIPROFLOXACIN] | – | – | 15 mm | – | – | – | – | 15 mm | – | – | – | 14 mm | – | – | – | – | – | – | – | – | –
